Laboratory results: US12377092B2, “Polycomb inhibitors and uses thereof” (FONDAZIONE ISTITUTO FIRC DI ONCOLOGIA MOLECOLARE (IFOM), priority 2017, dated 2025)

Key:
[1] = test system: VE-cadherin; assay: Western blot analysis of VE-cadherin, CCM3 knock out cells; type: cell-based, mouse; settings: 72 hours
Experimental: (§1) Cells were seeded 6.3×10^4 cells/cm^2. The day after, PTC209 and UNC1999 were added to the confluent cells. Drugs were left for one or three days depending on the aim of the experiment. Final concentrations used for the two drugs were: 1 uM PTC209 and 5 uM UNC1999.
Confluent cells were lysed with boiling modified Laemi sample Buffer (2% SDS, 20% glycerol, and 125 mM Tris-HCl, pH 6.8). Lysates were incubated for 10 minutes at 100° C. to allow proteins denaturation. Protein concentration was estimated using the BCA Protein Assay Kit (Pierce). Equal amount of proteins was loaded on a gel, separated by SDS-PAGE and transferred to a Protran Nitrocellulose Membrane (Whatman) 0.2 um pores. The membranes were blocked for 1 hour at RT in Tris Buffered Saline (TBS: NaCl 150 mM, Tris-HCl 10 mM pH 7.4) plus 0.1% Tween-20 containing 5% BSA or milk. […] Membranes were rinsed three times with TBST for 5 minutes each and specific bindings were detected by enhanced chemiluminescence (ECL) system (Amersham Bioscience) using ChemiDoc XRS gel imaging system (Bio-Rad).
Experiment with combined PTC209 and UNC1999 treatments was repeated with the same experimental conditions described before and junction organisation was analysed through VE-cadherin staining and protein expression analysis (FIG. 19).

[2] = test system: EndMT markers (Klf4, Sca1 and Fsp1); assay: Real time (RT-PCR) analysis of EndMT markers, wild type and CCM3 knock out immortalized lung endothelial cells; type: cell-based, mouse; settings: 72 hours
Experimental: as §1
(§2) RNA extraction was performed both with (A) RNeasy kits (Promega) or (B) RNAeasy Mini Kit (QIAGEN). The latter allows also the extraction of proteins from the same sample. The RNA (500 ng) was reverse transcribed with random hexamers (High Capacity cDNA Archive kits; Applied Biosystems) in a final volume of 30 uL. Reaction were made with a thermocycler (Eppendorf) 10 min at 25° C. followed by 2 hours at 37° C. cDNA (5 ng) was amplified in triplicate in a reaction volume of 15 uL using TaqMan Gene Expression Assays (Applied Biosystems) in a ABI/Prism 7900 HT using a pre PCR step of 10 min at 95° C., followed by 40 cycles of 15 seconds at 95° C. and 60 seconds at 60° C. For each sample, the expression level was determined with the comparative threshold cycle (Ct) method, and normalized to the housekeeping genes encoding 18S, glyceraldehyde-3-phosphate dehydrogenase (GAPDH) and hypoxanthine-guanine phosphoribosyltransferase (hprt1). Ct or threshold cycle, represents the PCR cycle at which an increase in reporter fluorescence above a base-line signal can first be detect.
Wild type and CCM3 knock out cells were treated with either PTC209 or DMSO starting from the day after seeding, when cells were confluent. For this experiment cells were lysed for western blot and real-time analysis after 72 hours of treatment to check a long-term effect of PTC209.
To perform these experiments, immortalized lung endothelial cells both wild type and CCM3 knock out were treated, with the same experimental strategy used for PTC209, with UNC1999 for 72 hours and subsequently lysed for western blot and real time analysis. UNC1999 was used in its specific optimal concentration, which was different to PTC209. As control DMSO was given to the cells in a volume equal to the volume of DMSO in which UNC1999 was previously dissolved to rich the optimal concentration.
Briefly, wild type and CCM3 knock out cells were treated with either PTC209, UNC1999 or a combination of the two. PTC209 and UNC1999 were administrated at the same concentration used for the single treatment and DMSO was given as control in a volume equal to the sum of volumes of DMSO in which UNC1999 and PTC209 were previously dissolved.

[3] = test system: CCM1 knock out cells; assay: Immunofluorescence of junction organisation (VE-cadherin, PECAM1), wild type and CCM1 knock out cells; type: cell-based, mouse
From the text: Also for CCM1 model, the inventors tested the effect of Bmi1 inhibition on junction organisation. The inventors repeated PTC209-treatment on CCM1 model with the same experimental conditions described before, and the inventors analysed VE-cadherin and PECAM1 expression by immunofluorescence analysis (FIG. 12) in parallel with real time analysis (FIG. 13).

[4] = test system: VE-cadherin; assay: Real time analysis of VE-cadherin transcript, CCM3 knock out cells; type: cell-based, mouse; settings: PTC209
Experimental: as §2
Western blot and real time analysis of VE-cadherin were performed in parallel to confirm the reduction of VE-cadherin observed by immunofluorescence (FIG. 8A-C). VE-cadherin protein and transcript levels, as expected, were reduced in CCM3 knock out cells compare to wild type, as already shown (Bravi et al., 2015).

[5] = biological target: T1, Bmi1 (Mus musculus, UniProt P25916); assay: Western blot analysis of Bmi1, wild type and CCM3 knock out immortalized lung endothelial cells; type: cell-based; settings: 24 hours of treatment, 1 uM PTC209 vs DMSO
T1 construct: western blot analysis of Bmi1 on lysates from confluent wild type (WT) and CCM3 knockout (CCM3-KO) cells treated with PTC209; endogenous in cells; host or cells: immortalized mouse lung endothelial cells, wild type and CCM3 knock out (VECPAC/CCM3 fl/fl, TAT-Cre)
T1 sequence (P25916 1-324): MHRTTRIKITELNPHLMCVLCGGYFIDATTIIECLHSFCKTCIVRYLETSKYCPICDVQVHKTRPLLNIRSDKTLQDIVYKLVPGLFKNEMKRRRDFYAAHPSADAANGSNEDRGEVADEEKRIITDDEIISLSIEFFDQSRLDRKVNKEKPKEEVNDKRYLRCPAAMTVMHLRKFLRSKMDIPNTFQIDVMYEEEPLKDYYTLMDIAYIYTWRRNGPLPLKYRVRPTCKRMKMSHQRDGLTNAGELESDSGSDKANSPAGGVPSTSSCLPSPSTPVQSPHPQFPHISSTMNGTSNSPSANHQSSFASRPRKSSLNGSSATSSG
Experimental: (§3) Confluent cells were lysed with boiling modified Laemi sample Buffer (2% SDS, 20% glycerol, and 125 mM Tris-HCl, pH 6.8). Lysates were incubated for 10 minutes at 100° C. to allow proteins denaturation. Protein concentration was estimated using the BCA Protein Assay Kit (Pierce). Equal amount of proteins was loaded on a gel, separated by SDS-PAGE and transferred to a Protran Nitrocellulose Membrane (Whatman) 0.2 um pores. The membranes were blocked for 1 hour at RT in Tris Buffered Saline (TBS: NaCl 150 mM, Tris-HCl 10 mM pH 7.4) plus 0.1% Tween-20 containing 5% BSA or milk. The membranes were incubated with primary antibodies diluted in TBST (TBS plus 0.1% Tween-20) containing 5% of either BSA or milk overnight at 4° C. Next, membranes were rinsed three times with TBST for 5 minutes each and incubated for 45 minutes at RT with HRP-linked secondary antibodies diluted in TBST containing 5% BSA/milk. Membranes were rinsed three times with TBST for 5 minutes each and specific bindings were detected by enhanced chemiluminescence (ECL) system (Amersham Bioscience) using ChemiDoc XRS gel imaging system (Bio-Rad).
CCM3 knock out cells were immortalized lung endothelial cells derived from VECPAC/CCM3^fl/fl mice, treated with TAT-Cre recombinase. […] As control the same cell line without TAT-Cre treatment were used. […]

[6] = test system: EndMT markers (Klf4, Sca1 and Fsp1); type: cell-based, mouse; settings: 72 hours
Experimental: as §1, §3

Compound: COc1cc(Br)c(Nc2nc(-c3c(C)nc4ncccn34)cs2)c(Br)c1 [PTC209, N-(2,6-dibromo-4-methoxyphenyl)-4-(2-methylimidazo[1,2-a]pyrimidin-3-yl)thiazol-2-amine]
- VE-cadherin protein expression level (western blot) [1]: did not show any rescue
- Klf4 transcript up-regulation induced by CCM3 deletion (real time analysis) ([2]; CCM3 knock out cells): completely rescued
- Klf4, Sca1 and Fsp1 transcripts (real time analysis) ([2]; CCM3 knock out cells, 1 uM PTC209, 5 uM UNC1999, vs DMSO): downregulated
- Klf4 transcript (real time analysis) ([2]; wild type cells (physiological condition), CCM3 model): not affected
- junction organisation (VE-cadherin, PECAM1 immunostaining) ([3]; CCM1 knock out cells): visible reorganisation of junctions
- junction organisation (VE-cadherin, PECAM1 immunostaining) ([3]; wild type cells, CCM1 model): remained unchanged
- VE-cadherin transcript level (real time analysis) [4]: did not rescue
- Bmi1 protein expression (western blot) ([5]; CCM3 knock out cells): downregulation of Bmi1
- Bmi1 protein expression (western blot) ([5]; wild type cells): downregulation of Bmi1
- EndMT markers (Klf4, Sca1, Fsp1) protein levels (western blot) ([6]; CCM1 knock out cells, vs DMSO): strong inhibition
- Klf4 protein (western blot) ([6]; wild type cells (physiological condition), CCM1 model): not downregulated
